Reference: ChEMBL document CHEMBL2021850, “Steroidal C-21 heteroaryl thioethers. Part 3: pregn-4-eno-[3,2-c]pyrazole fused A ring modified steroids as selective glucocorticoid receptor modulators (dissociated steroids)” (Bioorg Med Chem Lett, 2012)
pEC50, pIC50: −log10 of the molar value. Blank lines part the entries; values can stand above or below the compound they belong to.

Legend:
[1] = Cmax in po dosed rat; format: ADME, organism-based; design: route oral; conditions: in vivo
Glucocorticoid receptor [2] = molecular target: T1, Glucocorticoid receptor (Homo sapiens, UniProt P04150); experiment: Transactivation activity at human glucocorticoid receptor in cells co-expressing GRE by luciferase reporter gene assay relative to control; conditions: read-out: Efficacy
T1 sequence (P04150 whole entry): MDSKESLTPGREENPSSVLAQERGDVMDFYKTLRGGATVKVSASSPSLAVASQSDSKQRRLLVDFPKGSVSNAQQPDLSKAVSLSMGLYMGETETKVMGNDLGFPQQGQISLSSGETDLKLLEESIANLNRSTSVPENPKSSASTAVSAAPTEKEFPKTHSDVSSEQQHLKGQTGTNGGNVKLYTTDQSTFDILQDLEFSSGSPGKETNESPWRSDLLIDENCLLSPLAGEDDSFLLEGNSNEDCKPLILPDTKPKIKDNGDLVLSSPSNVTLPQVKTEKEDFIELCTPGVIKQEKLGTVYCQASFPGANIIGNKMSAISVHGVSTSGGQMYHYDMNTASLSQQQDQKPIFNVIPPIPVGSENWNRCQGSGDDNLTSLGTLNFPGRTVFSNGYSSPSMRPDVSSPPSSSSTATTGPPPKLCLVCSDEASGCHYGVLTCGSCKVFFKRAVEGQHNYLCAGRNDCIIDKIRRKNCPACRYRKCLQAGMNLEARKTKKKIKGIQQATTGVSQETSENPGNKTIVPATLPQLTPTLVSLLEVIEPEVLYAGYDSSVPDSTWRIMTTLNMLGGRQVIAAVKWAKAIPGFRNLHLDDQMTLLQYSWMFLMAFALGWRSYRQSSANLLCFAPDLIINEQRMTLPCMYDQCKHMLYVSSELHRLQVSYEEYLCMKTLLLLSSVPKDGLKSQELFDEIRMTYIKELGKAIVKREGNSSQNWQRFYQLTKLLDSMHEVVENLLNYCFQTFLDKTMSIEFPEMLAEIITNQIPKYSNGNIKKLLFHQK

Glucocorticoid receptor [3] = molecular target: T1, Glucocorticoid receptor; experiment: Transrepression activity at glucocorticoid receptor in human H292 cells assessed as inhibition of TNF-induced IL8 production; format: cell-based
Glucocorticoid receptor [4] = molecular target: T2, Glucocorticoid receptor (Rattus norvegicus, UniProt P06536); experiment: Transactivation activity at glucocorticoid receptor in rat H4II-E cells assessed as induction of tyrosine aminotransferase; format: ADME, cell-based
T2 sequence (P06536 whole entry): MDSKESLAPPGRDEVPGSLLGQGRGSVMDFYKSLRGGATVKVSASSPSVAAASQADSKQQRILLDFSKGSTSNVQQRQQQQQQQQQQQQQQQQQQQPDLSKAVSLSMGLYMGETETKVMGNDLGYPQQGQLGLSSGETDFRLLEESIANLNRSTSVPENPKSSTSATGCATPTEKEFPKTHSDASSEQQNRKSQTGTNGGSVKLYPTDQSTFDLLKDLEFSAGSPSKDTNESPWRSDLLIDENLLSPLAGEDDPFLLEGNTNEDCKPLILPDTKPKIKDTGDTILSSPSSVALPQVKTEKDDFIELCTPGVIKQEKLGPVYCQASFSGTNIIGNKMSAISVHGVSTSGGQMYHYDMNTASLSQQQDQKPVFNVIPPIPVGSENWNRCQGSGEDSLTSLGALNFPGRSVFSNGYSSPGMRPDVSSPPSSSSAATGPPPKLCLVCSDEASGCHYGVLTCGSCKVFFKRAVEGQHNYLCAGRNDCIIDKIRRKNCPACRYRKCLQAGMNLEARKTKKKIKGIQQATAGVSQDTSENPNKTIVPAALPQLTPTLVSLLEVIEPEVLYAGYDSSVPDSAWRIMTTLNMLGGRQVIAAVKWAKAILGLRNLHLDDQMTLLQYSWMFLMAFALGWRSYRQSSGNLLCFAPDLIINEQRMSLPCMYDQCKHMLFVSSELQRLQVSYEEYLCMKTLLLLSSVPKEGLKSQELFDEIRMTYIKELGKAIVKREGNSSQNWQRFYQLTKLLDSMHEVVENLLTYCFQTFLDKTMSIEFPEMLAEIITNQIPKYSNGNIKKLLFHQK

Glucocorticoid receptor [5] = molecular target: T1, Glucocorticoid receptor; experiment: Transactivation activity at glucocorticoid receptor in human HepG2 cells assessed as induction of tyrosine aminotransferase; format: ADME, cell-based
Rattus norvegicus [6] = experiment: Transactivation activity in Brown Norway rat lung inflammation model assessed as thymolysis measuring decrease in thymus weight at 10 mg/kg, po for 3 days; format: organism-based; design: dose 10 mg/kg, route oral; scale not given: the % may be the effect or the level left; conditions: in vivo, 72 h
Rattus norvegicus [7] = experiment: Antiinflammatory activity in Brown Norway rat lung inflammation model assessed as total cell inhibition at 10 mg/kg, po for 3 days; format: functional; conditions: 72 h
[8] = AUC in po dosed rat; format: ADME, organism-based; conditions: plasma
Glucocorticoid receptor [9] = molecular target: T1, Glucocorticoid receptor; experiment: Inhibition of human glucocorticoid receptor
Glucocorticoid receptor [10] = molecular target: T1, Glucocorticoid receptor; experiment: Transactivation activity at human glucocorticoid receptor in cells co-expressing GRE by luciferase reporter gene assay; conditions: read-out: IC50 (the source's name)
Rattus norvegicus [11] = experiment: Antiinflammatory activity in Brown Norway rat lung inflammation model assessed as total cell inhibition at 2 mg/kg, it; format: functional; conditions: route endotracheal

Structure (SMILES): C[C@]12Cc3cnn(-c4ccccc4)c3C=C1CC[C@@H]1[C@@H]2[C@@H](O)C[C@@]2(C)[C@H]1CC[C@]2(O)C(=O)CSc1nc2ncccc2o1
Cmax [1]: 467 ng/mL | Emax (Glucocorticoid receptor [2]): 83% | pIC50 (Glucocorticoid receptor [3]): 9.05 | pIC50 (Glucocorticoid receptor [4]): 7.47 | pIC50 (Glucocorticoid receptor [5]): 7.42 | Activity (Rattus norvegicus [6]): 67% | inhibition in vivo at 10 mg/kg (Rattus norvegicus [7]): 62% | AUC [8]: 2030 ng·h/mL

Structure (SMILES): Cn1c(SCC(=O)[C@@]2(O)CC[C@@]3(C)[C@@H]4CCC5=CC(=O)CC[C@]5(C)[C@H]4[C@@H](O)C[C@@]32C)nc2ccccc21
Cmax [1]: 115 ng/mL | Emax (Glucocorticoid receptor [2]): 8% | pIC50 (Glucocorticoid receptor [3]): 7.25 | Activity (Rattus norvegicus [6]): 5% | inhibition in vivo at 10 mg/kg (Rattus norvegicus [7]): 39% | AUC [8]: 150 ng·h/mL | pIC50 (Glucocorticoid receptor [9]): 8.05

Structure (SMILES): C[C@]12Cc3cnn(-c4ccccc4)c3C=C1CC[C@@H]1[C@@H]2[C@@H](O)C[C@@]2(C)[C@H]1CC[C@]2(O)C(=O)CSc1ccccn1
Emax (Glucocorticoid receptor [2]): 102% | pIC50 (Glucocorticoid receptor [3]): 8.82 | pIC50 (Glucocorticoid receptor [4]): 6.65 | pIC50 (Glucocorticoid receptor [5]): 6.22 | pEC50 (Glucocorticoid receptor [10]): 8.08

Structure (SMILES): C=CCn1c(SCC(=O)[C@@]2(O)CC[C@H]3[C@@H]4CCC5=Cc6c(cnn6-c6ccccc6)C[C@]5(C)[C@H]4[C@@H](O)C[C@@]32C)nc2ccccc21
Emax (Glucocorticoid receptor [2]): 86% | pIC50 (Glucocorticoid receptor [3]): 8.46 | pIC50 (Glucocorticoid receptor [4]): 6.59 | pIC50 (Glucocorticoid receptor [5]): 6.56 | pEC50 (Glucocorticoid receptor [10]): 7.54

Structure (SMILES): C[C@]12Cc3cnn(-c4ccccc4)c3C=C1CC[C@@H]1[C@@H]2[C@@H](O)C[C@@]2(C)[C@H]1CC[C@]2(O)C(=O)CSc1ccc2ccccc2n1
Emax (Glucocorticoid receptor [2]): 69% | pIC50 (Glucocorticoid receptor [3]): 7.83 | pIC50 (Glucocorticoid receptor [4]): 7.08 | pIC50 (Glucocorticoid receptor [5]): 7.22 | pEC50 (Glucocorticoid receptor [10]): 7.00

Structure (SMILES): C[C@]12Cc3cnn(-c4ccc(F)cc4)c3C=C1CC[C@@H]1[C@@H]2[C@@H](O)C[C@@]2(C)[C@H]1CC[C@]2(O)C(=O)CSc1cnc2ccccc2n1
pIC50 (Glucocorticoid receptor [3]): 8.70 | inhibition in vivo at 2 mg/kg (Rattus norvegicus [11]): 9%

Structure (SMILES): C[C@]12Cc3cnn(-c4ccc(F)cc4)c3C=C1CC[C@@H]1[C@@H]2[C@@H](O)C[C@@]2(C)[C@H]1CC[C@]2(O)C(=O)CSc1nc2ncccc2o1
Cmax [1]: 348 ng/mL | pIC50 (Glucocorticoid receptor [3]): 9.49 | pIC50 (Glucocorticoid receptor [4]): 7.88 | pIC50 (Glucocorticoid receptor [5]): 7.41 | Activity (Rattus norvegicus [6]): 70% | inhibition in vivo at 10 mg/kg (Rattus norvegicus [7]): 48% | AUC [8]: 1630 ng·h/mL

Structure (SMILES): C[C@]12CCC(=O)C=C1CC[C@@H]1[C@@H]2[C@@H](O)C[C@@]2(C)[C@H]1CC[C@]2(O)C(=O)CSc1cnc2ccccc2n1
Cmax [1]: 255 ng/mL | Emax (Glucocorticoid receptor [2]): 1% | pIC50 (Glucocorticoid receptor [3]): 7.66 | Activity (Rattus norvegicus [6]): 0% | inhibition in vivo at 10 mg/kg (Rattus norvegicus [7]): 39% | AUC [8]: 274 ng·h/mL

Structure (SMILES): C[C@]12Cc3cnn(C4CCCCC4)c3C=C1CC[C@@H]1[C@@H]2[C@@H](O)C[C@@]2(C)[C@H]1CC[C@]2(O)C(=O)CSc1ncccn1
Emax (Glucocorticoid receptor [2]): 76% | pIC50 (Glucocorticoid receptor [3]): 8.14 | pIC50 (Glucocorticoid receptor [5]): 6.00 | pEC50 (Glucocorticoid receptor [10]): 6.86

Structure (SMILES): Cc1nc(SCC(=O)[C@@]2(O)CC[C@H]3[C@@H]4CCC5=CC(=O)CC[C@]5(C)[C@H]4[C@@H](O)C[C@@]32C)sc1C
Emax (Glucocorticoid receptor [2]): 57% | pIC50 (Glucocorticoid receptor [3]): 7.66 | pIC50 (Glucocorticoid receptor [9]): 8.37

Structure (SMILES): Cc1nc(SCC(=O)[C@@]2(O)CC[C@H]3[C@@H]4CCC5=Cc6c(cnn6C6CCCCC6)C[C@]5(C)[C@H]4[C@@H](O)C[C@@]32C)sc1C
Emax (Glucocorticoid receptor [2]): 88% | pIC50 (Glucocorticoid receptor [3]): 8.55 | pIC50 (Glucocorticoid receptor [4]): 6.87 | pIC50 (Glucocorticoid receptor [5]): 6.77 | pEC50 (Glucocorticoid receptor [10]): 7.50

Structure (SMILES): Cn1c(SCC(=O)[C@@]2(O)CC[C@H]3[C@@H]4CCC5=Cc6c(cnn6-c6ccccc6)C[C@]5(C)[C@H]4[C@@H](O)C[C@@]32C)nc2ccccc21
Emax (Glucocorticoid receptor [2]): 64% | pIC50 (Glucocorticoid receptor [3]): 8.33 | pIC50 (Glucocorticoid receptor [4]): 7.11 | pIC50 (Glucocorticoid receptor [5]): 7.18 | pEC50 (Glucocorticoid receptor [10]): 7.72

Structure (SMILES): C[C@]12Cc3cnn(-c4ccccc4)c3C=C1CC[C@@H]1[C@@H]2[C@@H](O)C[C@@]2(C)[C@H]1CC[C@]2(O)C(=O)CSc1cnc2ccccc2n1
Cmax [1]: 21 ng/mL | Emax (Glucocorticoid receptor [2]): 68% | pIC50 (Glucocorticoid receptor [3]): 8.27 | pIC50 (Glucocorticoid receptor [4]): 6.95 | pIC50 (Glucocorticoid receptor [5]): 6.65 | AUC [8]: 64 ng·h/mL | inhibition in vivo at 2 mg/kg (Rattus norvegicus [11]): 28%

Second part, led by results:

Cmax [1]: 682 ng/mL | Activity (Rattus norvegicus [6]): 53% | AUC [8]: 1250 ng·h/mL
Structure (SMILES): C[C@]12C=CC(=O)C=C1CC[C@@H]1[C@@H]2[C@@H](O)C[C@@]2(C)[C@H]1CC[C@]2(O)C(=O)CO [PREDNISOLONE]
inhibition in vivo at 10 mg/kg (Rattus norvegicus [7]): 56%

Emax (Glucocorticoid receptor [2]): 35% | pIC50 (Glucocorticoid receptor [3]): 7.57 | pIC50 (Glucocorticoid receptor [9]): 8.41
Structure (SMILES): C[C@]12CCC(=O)C=C1CC[C@@H]1[C@@H]2[C@@H](O)C[C@@]2(C)[C@H]1CC[C@]2(O)C(=O)CSc1nc2ccccc2o1

Cmax [1]: 628 ng/mL | pIC50 (Glucocorticoid receptor [3]): 9.20 | pIC50 (Glucocorticoid receptor [4]): 8.49 | pIC50 (Glucocorticoid receptor [5]): 6.84 | AUC [8]: 2480 ng·h/mL
Structure (SMILES): C[C@]12Cc3cnn(-c4ccccc4)c3C=C1CC[C@@H]1[C@@H]2[C@@H](O)C[C@@]2(C)[C@H]1CC[C@]2(O)C(=O)CO

Cmax [1]: 240 ng/mL | pIC50 (Glucocorticoid receptor [3]): 9.40 | pIC50 (Glucocorticoid receptor [4]): 8.49 | pIC50 (Glucocorticoid receptor [5]): 7.39 | AUC [8]: 1040 ng·h/mL
Structure (SMILES): C[C@]12Cc3cnn(-c4ccc(F)cc4)c3C=C1CC[C@@H]1[C@@H]2[C@@H](O)C[C@@]2(C)[C@H]1CC[C@]2(O)C(=O)CO

Emax (Glucocorticoid receptor [2]): 16% | pIC50 (Glucocorticoid receptor [3]): 7.23 | pIC50 (Glucocorticoid receptor [9]): 8.33
Structure (SMILES): C[C@]12CCC(=O)C=C1CC[C@@H]1[C@@H]2[C@@H](O)C[C@@]2(C)[C@H]1CC[C@]2(O)C(=O)CSc1nc2ncccc2s1

Emax (Glucocorticoid receptor [2]): 14% | pIC50 (Glucocorticoid receptor [3]): 7.62 | pIC50 (Glucocorticoid receptor [9]): 7.83
Structure (SMILES): C[C@]12CCC(=O)C=C1CC[C@@H]1[C@@H]2[C@@H](O)C[C@@]2(C)[C@H]1CC[C@]2(O)C(=O)CSc1ccccn1

Emax (Glucocorticoid receptor [2]): 0% | pIC50 (Glucocorticoid receptor [3]): 7.05 | pIC50 (Glucocorticoid receptor [9]): 8.18
Structure (SMILES): C[C@]12CCC(=O)C=C1CC[C@@H]1[C@@H]2[C@@H](O)C[C@@]2(C)[C@H]1CC[C@]2(O)C(=O)CSc1ccc2ccccc2n1

Emax (Glucocorticoid receptor [2]): 96% | pIC50 (Glucocorticoid receptor [3]): 8.63 | pEC50 (Glucocorticoid receptor [10]): 8.25
Structure (SMILES): C[C@]12Cc3cnn(C4CCCCC4)c3C=C1CC[C@@H]1[C@@H]2[C@@H](O)C[C@@]2(C)[C@H]1CC[C@]2(O)C(=O)CO
